Results from US20050159352A1, “Use of monocarboxylate transporter protein for thyroid hormone transport” (priority 2002, published 2005).
Like-named read-outs stand apart in the source and are kept apart here.

Legend:
MCT8 [1] = molecular target: T1, MCT8 (Rattus norvegicus, UniProt Q8K1P8); assay: Inhibition of uptake of labeled T4 and T3 in MCT8 cRNA-injected oocytes by putative competitors; format: cell-based; conditions: labeled T3 10 nm, MCT8 cRNA-injected oocytes
T1 construct: the stop codon of MCT8 was removed by performing PCR using the same sense primer as above; expressed in transfected cells; host or cells: Xenopus laevis oocytes injected with cRNA transcribed from pGEM-HeJuel
T1 sequence (Q8K1P8 whole entry I169T/T171I/S199P/G227D): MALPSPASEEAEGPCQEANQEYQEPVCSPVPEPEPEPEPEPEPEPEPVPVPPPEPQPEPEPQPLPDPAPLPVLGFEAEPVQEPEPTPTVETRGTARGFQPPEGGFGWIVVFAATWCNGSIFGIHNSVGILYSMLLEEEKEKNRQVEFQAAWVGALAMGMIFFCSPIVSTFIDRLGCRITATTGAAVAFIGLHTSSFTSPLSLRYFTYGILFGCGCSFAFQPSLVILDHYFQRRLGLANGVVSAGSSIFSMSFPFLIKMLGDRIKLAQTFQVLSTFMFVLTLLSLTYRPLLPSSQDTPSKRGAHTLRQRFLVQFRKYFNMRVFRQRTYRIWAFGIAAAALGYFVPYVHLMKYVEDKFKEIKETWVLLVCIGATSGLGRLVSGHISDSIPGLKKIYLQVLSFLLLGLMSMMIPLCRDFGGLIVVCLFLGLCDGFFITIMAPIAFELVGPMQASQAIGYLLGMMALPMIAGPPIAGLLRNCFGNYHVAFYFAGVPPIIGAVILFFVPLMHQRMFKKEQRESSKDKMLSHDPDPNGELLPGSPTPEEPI
Method: (§1) Oocytes were isolated and allowed to recover overnight at 18 C in modified Barth's solution containing 20 IU/ml penicillin and 20 gg/ml streptomycin as described before (23). […] Uninjected or water injected oocytes were used as controls.
(§2) Transport measurements in oocytes—Oocytes were washed and preincubated at 18 C in standard uptake solution (100 mM NaCl, 2 mM KCl, 1 mM CaCl2, 1 mM MgCl2, 10 mM HEPES, and 10 mM Tris, pH 7.5). […] The possible Na^+ dependence of transport was tested by preincubation and incubation in Na^+-free uptake solution in which NaCl was replaced by choline chloride. The influence of the temperature on the uptake rate was tested by the incubation of oocytes with uptake solutions at different temperatures between 4 and 37 C. […] The incubation was stopped by aspiration of the medium, and oocytes were washed 4 times at 4 C with standard uptake solution containing 0.1% BSA.

MCT8 [2] = molecular target: T2, MCT8 (Rattus norvegicus, UniProt Q8K1P8, G227D/I169T/S199P/T171I); assay: as above; format: cell-based; set-up: the stop codon of MCT8 was removed by performing PCR using the same sense primer as above; expressed in transfected cells; host or cells: Xenopus laevis oocytes injected with cRNA transcribed from pGEM-HeJuel; conditions: for Inhibition of labeled T4 and T3 uptake by MCT8 (in words): unlabeled competitor, taurocholate and probenecid data not shown
T2 sequence (Q8K1P8 whole entry I169T/T171I/S199P/G227D): as above
Method: as §1, §2

MCT8 [3] = molecular target: T2, MCT8; assay: Transport (uptake) of radioactive ligands by MCT8 expressed in X. laevis oocytes; format: cell-based; set-up: the stop codon of MCT8 was removed by performing PCR using the same sense primer as above; expressed in transfected cells; host or cells: Xenopus laevis oocytes injected with cRNA transcribed from pGEM-HeJuel; conditions: 10 nM iodothyronines or amino acids; MCT8 cRNA-injected vs uninjected oocytes
Method: Xenopus oocytes were isolated and injected with 4.6 ng rat MCTS cRNA. After 3 days, groups of 10 injected or uninjected oocytes were incubated for 60 mm at 25 C with 10 nM radioactive iodothyronines in 0.1 ml medium. Uptake of iodothyronines was determined as previously described (18).
as §1
Transport measurements in oocytes—Oocytes were washed and preincubated at 18 C in standard uptake solution (100 mM NaCl, 2 mM KCl, 1 mM CaCl2, 1 mM MgCl2, 10 mM HEPES, and 10 mM Tris, pH 7.5). Usually, transport was tested by incubation of groups of 5-10 oocytes for 2-60 mm at 25 C with 10 nM [1251]iodothyronines or 10 μM [3H]amino acids in 0.1 ml standard uptake solution. The possible Na^+ dependence of transport was tested by preincubation and incubation in Na^+-free uptake solution in which NaCl was replaced by choline chloride. The influence of the temperature on the uptake rate was tested by the incubation of oocytes with uptake solutions at different temperatures between 4 and 37 C. […] The incubation was stopped by aspiration of the medium, and oocytes were washed 4 times at 4 C with standard uptake solution containing 0.1% BSA.

MCT8 [4] = molecular target: T2, MCT8; assay: Transport kinetics of MCT8-mediated iodothyronine uptake in oocytes (Michaelis-Menten); set-up: dose or concentration left out as unconfirmed; conditions: net transport
Method: Apparent Km values were calculated by fitting the plot of uptake rate (v) versus ligand concentration (5) to the Michaelis Menten equation: v=Vmax/(1+Km/S), wherein Vmax is the maximum uptake rate, and Km the Michaelis constant. Calculations were performed using the Slide Write Plus program version 5.01 (Advanced Graphics Software).

MCT8 [5] = molecular target: T2, MCT8; assay: Uptake and metabolism (sulfation) of rT3 in MCT8 cRNA-injected oocytes; format: cell-based; set-up: the stop codon of MCT8 was removed by performing PCR using the same sense primer as above; expressed in transfected cells; host or cells: Xenopus laevis oocytes injected with cRNA transcribed from pGEM-HeJuel; conditions: 10 nM rT3, 2-60 min, 25 C
Method: Analysis of rT3 metabolism in oocytes—Groups of 10 oocytes were incubated for 2-60 mm at 25 C with 10 nM ['25IIrTa. After incubation, medium was collected, and 2 groups of 5 oocytes were counted separately and homogenized in 0.1 ml 0.1 M NaOH as described before (25). Lysates were cleared by centrifugation. Lysates (in duplicate) and incubation media were acidified with 0.1 M HCl and analyzed by Sephadex LH-20 chromatography (21). The different products were successively eluted with 0.1 M HCl (iodide), water (conjugates), and 1% NH4OH in ethanol (iodothyronines).
Metabolism of rT3—Previous studies have shown that X. laevis oocytes actively metabolize rT3 by sulfation. Since sulfotransferases are located intracellularly, we have used this property to investigate rT3 internalization by oocytes. […] At several time points, uninjected and MCT8 cRNA-injected oocytes are homogenized, and the homogenates and medium samples are analyzed for rT3 and rT3 sulfate (rT3S) content. It is shown that already after 2 mm of incubation, rT3S is formed intracellularly in the MCT8 cRNA-injected oocytes. After 10 mm of incubation, release of rT3S into the medium is observed. The production rate of rT3S is much higher in MCT8 cRNA-injected oocytes than in uninjected cells.

rat MCT1 = molecular target: T3, rat MCT1 (Rattus norvegicus, UniProt P53987); conditions: data not shown
T3 sequence (P53987 1-494): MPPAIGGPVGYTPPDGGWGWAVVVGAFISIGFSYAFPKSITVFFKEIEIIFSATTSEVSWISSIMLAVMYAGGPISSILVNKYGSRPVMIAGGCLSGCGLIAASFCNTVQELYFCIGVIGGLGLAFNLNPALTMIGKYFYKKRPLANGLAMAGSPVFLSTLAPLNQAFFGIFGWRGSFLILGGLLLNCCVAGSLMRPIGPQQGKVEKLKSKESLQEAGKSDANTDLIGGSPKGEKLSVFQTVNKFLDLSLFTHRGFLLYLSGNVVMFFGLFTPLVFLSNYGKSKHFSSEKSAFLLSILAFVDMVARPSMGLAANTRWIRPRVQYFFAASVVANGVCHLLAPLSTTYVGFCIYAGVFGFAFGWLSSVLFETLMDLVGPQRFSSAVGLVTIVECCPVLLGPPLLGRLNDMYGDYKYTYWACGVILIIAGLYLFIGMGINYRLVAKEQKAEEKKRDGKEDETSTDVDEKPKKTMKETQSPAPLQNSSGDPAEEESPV

rat oatp1 = molecular target: T4, rat oatp1 (Rattus norvegicus, UniProt P46720); conditions: literature (10); read-out: Apparent Km values for rat oatp1; cited from earlier work
T4 sequence (P46720 1-670): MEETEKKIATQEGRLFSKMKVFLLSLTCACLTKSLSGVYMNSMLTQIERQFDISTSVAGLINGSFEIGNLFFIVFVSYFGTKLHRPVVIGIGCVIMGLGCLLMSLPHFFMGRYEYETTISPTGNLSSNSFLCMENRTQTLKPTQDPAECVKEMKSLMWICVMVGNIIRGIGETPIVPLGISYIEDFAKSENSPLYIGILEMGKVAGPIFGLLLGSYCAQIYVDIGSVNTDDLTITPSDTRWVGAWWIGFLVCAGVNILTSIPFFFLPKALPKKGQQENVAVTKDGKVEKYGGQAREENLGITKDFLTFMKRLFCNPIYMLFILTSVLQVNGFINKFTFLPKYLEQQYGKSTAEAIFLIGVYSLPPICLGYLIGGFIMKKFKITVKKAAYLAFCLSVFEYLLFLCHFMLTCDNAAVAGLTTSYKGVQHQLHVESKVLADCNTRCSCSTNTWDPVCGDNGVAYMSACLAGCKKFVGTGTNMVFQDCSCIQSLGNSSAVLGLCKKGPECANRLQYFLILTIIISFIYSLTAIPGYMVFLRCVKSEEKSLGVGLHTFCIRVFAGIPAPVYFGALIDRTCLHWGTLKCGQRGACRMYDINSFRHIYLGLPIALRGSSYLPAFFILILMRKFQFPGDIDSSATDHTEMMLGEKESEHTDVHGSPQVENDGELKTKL

[6] = labeled T4 10 nm, inhibitor 100 μM, MCT8 cRNA-injected oocytes
[7] = labeled T4 10 nm, inhibitor 10 μM, MCT8 cRNA-injected oocytes

Compound | Inhibition of labeled T4 and T3 uptake by MCT8 (in words) (MCT8 [2]) | Substrate specificity: transport by MCT8 (in words) (MCT8 [3]) | also measured
N[C@@H](Cc1ccc(O)cc1)C(=O)O [Tyr] | hardly affected | not transported | % inhibition ± SEM of uptake of T3 (MCT8 [1]; inhibitor 100 μM): 0 ± 9%; % inhibition ± SEM of uptake of T4 (MCT8 [2]; [6]): 37 ± 6%
NS(=O)(=O)O [T4NS] |  | not transported | 
CCCN(CCC)S(=O)(=O)c1ccc(C(=O)O)cc1 [probenecid] | weak effects |  | 
N[C@H](Cc1cc(I)c(Oc2cc(I)c(O)c(I)c2)c(I)c1)C(=O)O [D-T4] | potently inhibited |  | % inhibition ± SEM of uptake of T3 (MCT8 [1]; inhibitor 10 μM): 21 ± 5%; % inhibition ± SEM of uptake of T4 (MCT8 [2]; [7]): 76 ± 7%
N[C@@H](Cc1ccc(Oc2cc(I)c(O)c(I)c2)c(I)c1)C(=O)O [rT3, 3,3′,5′-triiodothyronine] |  | rapid uptake | Saturability of transport by MCT8 (MCT8 [4]): saturable; Production rate of rT3S in MCT8 cRNA-injected oocytes versus uninjected cells (MCT8 [5]): much higher
CC(O)C(=O)O (centres unmarked) [lactate] |  | unable to demonstrate any transport | Transport in rat MCT1 cRNA-injected oocytes compared to control oocytes (in words) (rat MCT1): greatly stimulated
O=C(CBr)N[C@@H](Cc1cc(I)c(Oc2ccc(O)c(I)c2)c(I)c1)C(=O)O [BrAcT3, N-bromoacetyl-3,3′,5-triiodothyronine] | potently inhibited |  | inhibition at 10 µM (MCT8 [2]; labeled T4 10 nm, inhibitor 10 μM, MCT8 cRNA-injected oocytes, read-out: % inhibition ± SEM of uptake of T4): 90 ± 3%; inhibition at 10 µM (MCT8 [2]; read-out: % inhibition ± SEM of uptake of T3): 67 ± 1%
O=C1OC(c2ccc(O)c(S(=O)(=O)O)c2)(c2ccc(O)c(S(=O)(=O)O)c2)c2c(Br)c(Br)c(Br)c(Br)c21 [BSP, bromosulfophthalein] | potent inhibitor |  | % inhibition ± SEM of uptake of T3 (MCT8 [1]; inhibitor 100 μM): 81 ± 1%; Km (rat oatp1): 1.5 µM; % inhibition ± SEM of uptake of T4 (MCT8 [2]; [6]): 94 ± 2%
N[C@@H](Cc1ccc(Oc2ccc(O)c(I)c2)c(I)c1)C(=O)O [T2, 3,3′-diiodothyronine] |  | rapid uptake | 
N[C@@H](Cc1cc(I)c(Oc2cc(I)c(OS(=O)(=O)O)c(I)c2)c(I)c1)C(=O)O [T4S] |  | not transported | 
N[C@@H](Cc1c[nH]c2ccccc12)C(=O)O [Trp] | hardly affected | not transported | % inhibition ± SEM of uptake of T3 (MCT8 [1]; inhibitor 100 μM): 0 ± 7%; % inhibition ± SEM of uptake of T4 (MCT8 [2]; [6]): 22 ± 6%
CC(C)C[C@H](N)C(=O)O [Leu] |  | not transported | 
N[C@@H](Cc1ccccc1)C(=O)O [Phe] |  | not transported | 
N[C@H](Cc1cc(I)c(Oc2ccc(O)c(I)c2)c(I)c1)C(=O)O [D-T3] | potently inhibited |  | % inhibition ± SEM of uptake of T3 (MCT8 [1]; inhibitor 10 μM): 24 ± 5%; % inhibition ± SEM of uptake of T4 (MCT8 [2]; [7]): 72 ± 3%
